Measurements taken from the NIST ThermoML archive (doi:10.1016/j.jct.2014.07.005).
Numbers after ± are expanded uncertainties.

Tests used:
[1] = mn = molality of the nth substance listed, in mol/kg; conditions: 100 kPa, Liquid; for viscosity: Capillary tube (Ostwald / Ubbelohde) method; for mass density: Vibrating tube method
[2] = 100 kPa, Liquid, Capillary tube (Ostwald / Ubbelohde) method

SMILES: CCCCCCCCn1cc[n+](C)c1.[Br-] [1-methyl-3-octylimidazolium bromide] + O
- viscosity ([1]; 288.15 K, m1 = 0.0035): 1.146 ± 0.024 mPa·s
- viscosity ([1]; 288.15 K, m1 = 0.0111): 1.151 ± 0.024 mPa·s
- viscosity ([1]; 288.15 K, m1 = 0.0185): 1.154 ± 0.024 mPa·s
- mass density ([1]; 288.15 K, m1 = 0.0035): 999.275 ± 0.12 kg/m3
- mass density ([1]; 288.15 K, m1 = 0.0111): 999.611 ± 0.12 kg/m3
- mass density ([1]; 288.15 K, m1 = 0.0185): 999.913 ± 0.11 kg/m3
- viscosity ([1]; 293.15 K, m1 = 0.0035): 1.006 ± 0.021 mPa·s
- viscosity ([1]; 293.15 K, m1 = 0.0111): 1.013 ± 0.021 mPa·s
- viscosity ([1]; 293.15 K, m1 = 0.0185): 1.021 ± 0.021 mPa·s
- mass density ([1]; 293.15 K, m1 = 0.0035): 998.364 ± 0.12 kg/m3
- mass density ([1]; 293.15 K, m1 = 0.0111): 998.697 ± 0.11 kg/m3
- mass density ([1]; 293.15 K, m1 = 0.0185): 998.983 ± 0.11 kg/m3
- viscosity ([1]; 298.15 K, m1 = 0.0035): 0.895 ± 0.019 mPa·s
- viscosity ([1]; 298.15 K, m1 = 0.0111): 0.9 ± 0.019 mPa·s
- viscosity ([1]; 298.15 K, m1 = 0.0185): 0.904 ± 0.019 mPa·s
- mass density ([1]; 298.15 K, m1 = 0.0035): 997.197 ± 0.12 kg/m3
- mass density ([1]; 298.15 K, m1 = 0.0111): 997.499 ± 0.11 kg/m3
- mass density ([1]; 298.15 K, m1 = 0.0185): 997.781 ± 0.11 kg/m3
- viscosity ([1]; 303.15 K, m1 = 0.0035): 0.8 ± 0.017 mPa·s
- viscosity ([1]; 303.15 K, m1 = 0.0111): 0.805 ± 0.017 mPa·s
- viscosity ([1]; 303.15 K, m1 = 0.0185): 0.807 ± 0.017 mPa·s
- mass density ([1]; 303.15 K, m1 = 0.0035): 995.792 ± 0.12 kg/m3
- mass density ([1]; 303.15 K, m1 = 0.0111): 996.09 ± 0.11 kg/m3
- mass density ([1]; 303.15 K, m1 = 0.0185): 996.32 ± 0.11 kg/m3
- viscosity ([1]; 308.15 K, m1 = 0.0035): 0.721 ± 0.015 mPa·s
- viscosity ([1]; 308.15 K, m1 = 0.0111): 0.723 ± 0.015 mPa·s
- viscosity ([1]; 308.15 K, m1 = 0.0185): 0.728 ± 0.015 mPa·s
- mass density ([1]; 308.15 K, m1 = 0.0035): 994.141 ± 0.11 kg/m3
- mass density ([1]; 308.15 K, m1 = 0.0111): 994.373 ± 0.11 kg/m3
- mass density ([1]; 308.15 K, m1 = 0.0185): 994.59 ± 0.11 kg/m3
- viscosity ([1]; 313.15 K, m1 = 0.0035): 0.655 ± 0.014 mPa·s
- viscosity ([1]; 313.15 K, m1 = 0.0111): 0.659 ± 0.014 mPa·s
- viscosity ([1]; 313.15 K, m1 = 0.0185): 0.66 ± 0.014 mPa·s
- mass density ([1]; 313.15 K, m1 = 0.0035): 992.331 ± 0.11 kg/m3
- mass density ([1]; 313.15 K, m1 = 0.0111): 992.622 ± 0.11 kg/m3
- mass density ([1]; 313.15 K, m1 = 0.0185): 992.876 ± 0.11 kg/m3

SMILES: O [water]
- viscosity ([2]; 288.15 K): 1.139 ± 0.024 mPa·s
- viscosity ([2]; 293.15 K): 1.002 ± 0.021 mPa·s
- viscosity ([2]; 298.15 K): 0.89 ± 0.019 mPa·s
- viscosity ([2]; 303.15 K): 0.798 ± 0.017 mPa·s
- viscosity ([2]; 308.15 K): 0.719 ± 0.015 mPa·s
- viscosity ([2]; 313.15 K): 0.653 ± 0.014 mPa·s

SMILES: O [water] + CCCCCCCCn1cc[n+](C)c1.[Br-]
- viscosity ([1]; 288.15 K, m2 = 0): 1.139 ± 0.024 mPa·s
- viscosity ([1]; 293.15 K, m2 = 0): 1.002 ± 0.021 mPa·s
- viscosity ([1]; 298.15 K, m2 = 0): 0.89 ± 0.019 mPa·s
- viscosity ([1]; 303.15 K, m2 = 0): 0.798 ± 0.017 mPa·s
- viscosity ([1]; 308.15 K, m2 = 0): 0.719 ± 0.015 mPa·s
- viscosity ([1]; 313.15 K, m2 = 0): 0.653 ± 0.014 mPa·s
